Reference: patent US9371304B2, “Compound separated from monascus-fermented rice,the preparation method and uses thereof” (Beijing Peking University WBL Biotech Co. Ltd, priority 2011, dated 2016)

Target: T1, HMG-CoA reductase (microsomes of rat liver) (Rattus norvegicus, UniProt P51639)
T1 construct: from tissue; host or cells: rat liver microsomes
T1 sequence (P51639 1-887): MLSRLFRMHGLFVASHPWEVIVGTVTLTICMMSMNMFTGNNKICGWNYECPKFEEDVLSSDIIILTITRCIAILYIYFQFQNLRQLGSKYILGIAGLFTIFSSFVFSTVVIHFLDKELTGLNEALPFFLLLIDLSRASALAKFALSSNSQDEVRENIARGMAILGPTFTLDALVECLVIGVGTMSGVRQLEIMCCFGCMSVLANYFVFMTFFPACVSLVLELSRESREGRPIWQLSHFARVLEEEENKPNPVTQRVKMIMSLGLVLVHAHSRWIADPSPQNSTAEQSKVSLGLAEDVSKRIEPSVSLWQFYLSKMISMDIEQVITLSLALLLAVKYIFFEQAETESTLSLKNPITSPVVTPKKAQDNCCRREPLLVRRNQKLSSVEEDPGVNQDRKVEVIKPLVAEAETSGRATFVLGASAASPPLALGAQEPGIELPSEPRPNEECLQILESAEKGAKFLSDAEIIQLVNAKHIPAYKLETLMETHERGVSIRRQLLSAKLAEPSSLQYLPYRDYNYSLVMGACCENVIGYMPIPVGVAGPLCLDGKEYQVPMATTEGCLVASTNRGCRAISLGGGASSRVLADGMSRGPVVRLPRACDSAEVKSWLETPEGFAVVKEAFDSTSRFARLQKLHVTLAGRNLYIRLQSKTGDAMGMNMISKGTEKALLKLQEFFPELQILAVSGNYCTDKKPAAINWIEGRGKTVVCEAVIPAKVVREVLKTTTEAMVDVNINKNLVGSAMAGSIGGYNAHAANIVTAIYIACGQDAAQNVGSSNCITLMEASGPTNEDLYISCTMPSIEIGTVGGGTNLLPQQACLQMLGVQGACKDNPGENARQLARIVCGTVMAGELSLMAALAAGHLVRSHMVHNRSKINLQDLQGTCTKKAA
Assay: Test of inhibiting activity of HMG-CoA reductase (rate of decline of OD340)
Format: biochemical
Settings: for Slope (rate of decline of OD340 within 5 min): blank control slope 9.971
Procedure: 1. Experimental Materials
The compound of Formula II prepared according to Example 1.
monacolin L (purchased or prepared according to the method of the contents of the present invention)
Standard Sample of Lovastatin (Purchased from Sigma)
Microsomes of rat liver (HMG-CoA reductase) were purchased, or prepared according to the following method: liver of a male rat was taken out, washed with KESD buffering solution, then centrifuged at 1,200 g for 15 min, the supernatant was taken out, and then centrifuged at 105,000 g for 90 min twice, and a centrifugation precipitate was collected. The centrifugation precipitate was added with 8.3% glycerol, heated with 37° C. bath for 1 h. The microsomes of rat liver were purified with saturated ammonium sulfate and the 33-50% purified fraction was collected. The obtained microsomes of rat liver were stored in refrigerator at −80° C.
Potassium chloride, potassium dihydrogen phosphate, ethylene diamine tetraacetic acid, dithiothreitol (all purchased from Beijing Chemical Reagent Co., Ltd.)
[…] (purchased from Merck) 3-hydroxy-3-methylglutaryl coenzyme A (HMG-CoA) and cremophore EL (purchased from Sigma).
The compound as prepared according to Example 1 was dissolved with 50% cremophore EL ethanol solution, and the concentration was 2 mg/mL; the total volume of the system was determined and it was 250 μL, and the concentration of each component was: potassium chloride 200 mM, potassium dihydrogen phosphate 160 mM, ethylene diamine tetraacetic acid 4 mM, dithiothreitol 10 mM, concentrations of two substrates, nicotinamide adenine dinucleotide and 3-hydroxy-3-methylglutaryl coenzyme A, 200 μM and 50 μM separately, pH6.8, addition of enzyme 30 μL, enzyme inhibitor 5 μL, blank control group 5 μL (solvent for dissolving sample). The dynamic change of OD340 was detected with Versamax ELIASA at 37° C. The rate of decline (represented with slope value) of OD340 within 5 min was used to evaluate the activity of HMG-CoA reductase, and then to evaluate the activity of enzyme inhibitor.

## CC1C=C2C=CC(C)C(CCC3CC=CC(=O)O3)C2CC1 (stereo not shown) [6-(2-(2,6-dimethyl-1,2,6,7,8,8a-hexahydronaphthalen-1-yl)ethyl)-5,6-dihydropyran-2-one]
Conclusion drawn from Table 2
  activity for inhibiting HMG-CoA reductase (in words): effective activity
Final concentration 40 μg/mL, 37° C., pH6.8
  Slope (rate of decline of OD340 within 5 min): 7.344
pH 6.8, final concentration 40 μg/mL, 37° C., pH6.8
  inhibition at 40 µg/mL: 26.3%

## CC[C@H](C)C(=O)O[C@H]1C[C@@H](C)C=C2C=C[C@H](C)[C@H](CC[C@@H]3C[C@@H](O)CC(=O)O3)[C@H]21 [Lovastatin]
Final concentration 34 μg/mL, 37° C., pH6.8
  Slope (rate of decline of OD340 within 5 min): 6.022
pH 6.8, final concentration 34 μg/mL, 37° C., pH6.8
  inhibition at 34 µg/mL: 39.6%

## CC1C=C2C=CC(C)C(CCC3CC(O)CC(=O)O3)C2CC1 (stereo not shown) [monacolin L]
Final concentration 30 μg/mL, 37° C., pH6.8
  Slope (rate of decline of OD340 within 5 min): 7.279
pH 6.8, final concentration 30 μg/mL, 37° C., pH6.8
  inhibition at 30 µg/mL: 27%
